# Test results as given in PubChem BioAssay AID1259407 (Chemical Carcinogenesis Research Information System (CCRIS), 2018).
# Calls of active or inactive are those of the source. No rule for the calls is given here.
# Test system: CCRIS mutagenicity, Ames/micronucleus/aberration tests
# Test: CCRIS mutagenicity studies
smiles,measurement,setting,value
Nc1cccc(N)c1,mutagenic call,"End Point: IN VITRO CHROMOSOMAL ABERRATIONS, Test System: CHINESE HAMSTER LUNG CELLS (CHL), Metabolic Activation: RAT, LIVER, S-9, KC-400",active; positive (structural changes)
same,mutagenic call,"End Point: IN VITRO CHROMOSOMAL ABERRATIONS, Test System: CHINESE HAMSTER OVARY CELLS (CHO), Metabolic Activation: NONE",active; positive (structural changes)
same,mutagenic call,"End Point: IN VITRO CHROMOSOMAL ABERRATIONS, Test System: CHINESE HAMSTER OVARY CELLS (CHO), Metabolic Activation: RAT, LIVER, S-9, AROCLOR 1254",inactive; negative
same,mutagenic call,"End Point: IN VITRO CHROMOSOMAL ABERRATIONS, Test System: CHL CELLS, Metabolic Activation: NONE",active; positive (structural changes)
same,mutagenic call,"End Point: IN VITRO CHROMOSOMAL ABERRATIONS, Test System: CHL CELLS, Metabolic Activation: RAT, LIVER, S-9, SODIUM PHENOBARBITAL AND 5,6-BENZOFLAVONE",active; positive (structural changes)
same,mutagenic call,"End Point: IN VITRO CHROMOSOMAL ABERRATIONS, Test System: CHL/IU CELLS, Metabolic Activation: NONE",active; positive (ploidy changes)
same,mutagenic call,"End Point: IN VITRO MICRONUCLEUS, Test System: CHL/IU CELLS, Metabolic Activation: NONE",active; positive
same,mutagenic call,"Test System: AMES SALMONELLA TYPHIMURIUM, Strain/Indicator: TA97, Metabolic Activation: HAMSTER, LIVER, S-9, AROCLOR 1254 (10%), Method: PREINCUBATION",active; positive
same,mutagenic call,"Test System: AMES SALMONELLA TYPHIMURIUM, Strain/Indicator: TA97, Metabolic Activation: NONE, Method: PREINCUBATION",inactive; negative
same,mutagenic call,"Test System: AMES SALMONELLA TYPHIMURIUM, Strain/Indicator: TA97, Metabolic Activation: RAT, LIVER, S-9, AROCLOR 1254 (4 OR 10%), Method: STANDARD PLATE",active; positive
same,mutagenic call,"Test System: AMES SALMONELLA TYPHIMURIUM, Strain/Indicator: TA97, Metabolic Activation: RAT, LIVER, S-9, AROCLOR 1254 (10%), Method: PREINCUBATION",active; positive
same,mutagenic call,"Test System: AMES SALMONELLA TYPHIMURIUM, Strain/Indicator: TA98(1,8-DNP6), Metabolic Activation: TOBACCO, TX1 CELLS, Method: PREINCUBATION",inactive; negative
same,mutagenic call,"Test System: AMES SALMONELLA TYPHIMURIUM, Strain/Indicator: TA98, Metabolic Activation: HAMSTER, LIVER, S-9, AROCLOR 1254 (10%), Method: PREINCUBATION",active; positive
same,mutagenic call,"Test System: AMES SALMONELLA TYPHIMURIUM, Strain/Indicator: TA98, Metabolic Activation: PEA APICAL BUD S-9, Method: PREINCUBATION",active; positive
same,mutagenic call,"Test System: AMES SALMONELLA TYPHIMURIUM, Strain/Indicator: TA98, Metabolic Activation: PEA APICAL BUD S-9, Method: STANDARD PLATE",active; positive
same,mutagenic call,"Test System: AMES SALMONELLA TYPHIMURIUM, Strain/Indicator: TA98, Metabolic Activation: PLANT (PERSEA AMERICANA) S-117, Method: STANDARD PLATE",active; positive
same,mutagenic call,"Test System: AMES SALMONELLA TYPHIMURIUM, Strain/Indicator: TA98, Metabolic Activation: PLANT (ZEA MAYS) S-9, Method: STANDARD PLATE",active; positive
same,mutagenic call,"Test System: AMES SALMONELLA TYPHIMURIUM, Strain/Indicator: TA98, Metabolic Activation: RAT, BLADDER, S-9, PCB, Method: FLUCTUATION TEST",active; positive
same,mutagenic call,"Test System: AMES SALMONELLA TYPHIMURIUM, Strain/Indicator: TA98, Metabolic Activation: RAT, LIVER, S-9, AROCLOR 1254 (10%), Method: PREINCUBATION",active; positive
same,mutagenic call,"Test System: AMES SALMONELLA TYPHIMURIUM, Strain/Indicator: TA98, Metabolic Activation: RAT, LIVER, S-9, AROCLOR 1254, Method: PREINCUBATION",active; positive
same,mutagenic call,"Test System: AMES SALMONELLA TYPHIMURIUM, Strain/Indicator: TA98, Metabolic Activation: RAT, LIVER, S-9, AROCLOR 1254, Method: STANDARD PLATE",active; positive
same,mutagenic call,"Test System: AMES SALMONELLA TYPHIMURIUM, Strain/Indicator: TA98, Metabolic Activation: RAT, LIVER, S-9, PCB, Method: PREINCUBATION",active; positive
same,mutagenic call,"Test System: AMES SALMONELLA TYPHIMURIUM, Strain/Indicator: TA98, Metabolic Activation: RAT, LIVER, S-9, PHENOBARBITAL AND 5,6-BENZOFLAVONE, Method: PREINCUBATION",active; positive
same,mutagenic call,"Test System: AMES SALMONELLA TYPHIMURIUM, Strain/Indicator: TA98, Metabolic Activation: S-9, Method: PREINCUBATION",active; positive
same,mutagenic call,"Test System: AMES SALMONELLA TYPHIMURIUM, Strain/Indicator: TA98, Metabolic Activation: TOBACCO, TX1 CELLS, Method: PREINCUBATION",active; positive
same,mutagenic call,"Test System: AMES SALMONELLA TYPHIMURIUM, Strain/Indicator: TA100, Metabolic Activation: HAMSTER, LIVER, S-9, AROCLOR 1254 (10%), Method: PREINCUBATION",active; positive
same,mutagenic call,"Test System: AMES SALMONELLA TYPHIMURIUM, Strain/Indicator: TA100, Metabolic Activation: NONE, Method: STANDARD PLATE",inactive; negative
same,mutagenic call,"Test System: AMES SALMONELLA TYPHIMURIUM, Strain/Indicator: TA100, Metabolic Activation: PEA APICAL BUD S-9, Method: PREINCUBATION",inactive; negative
same,mutagenic call,"Test System: AMES SALMONELLA TYPHIMURIUM, Strain/Indicator: TA100, Metabolic Activation: PEA APICAL BUD S-9, Method: STANDARD PLATE",inactive; negative
same,mutagenic call,"Test System: AMES SALMONELLA TYPHIMURIUM, Strain/Indicator: TA100, Metabolic Activation: RAT, BLADDER, S-9, PCB, Method: FLUCTUATION TEST",active; positive
same,mutagenic call,"Test System: AMES SALMONELLA TYPHIMURIUM, Strain/Indicator: TA100, Metabolic Activation: RAT, LIVER, S-9, AROCLOR 1254 (10%), Method: PREINCUBATION",active; positive
same,mutagenic call,"Test System: AMES SALMONELLA TYPHIMURIUM, Strain/Indicator: TA100, Metabolic Activation: RAT, LIVER, S-9, AROCLOR 1254, Method: PREINCUBATION",active; positive
same,mutagenic call,"Test System: AMES SALMONELLA TYPHIMURIUM, Strain/Indicator: TA100, Metabolic Activation: RAT, LIVER, S-9, PCB, Method: PREINCUBATION",active; positive
